Test results: ChEMBL document CHEMBL4196079, “Molecular interaction of novel benzothiazolyl triazolium analogues with calf thymus DNA and HSA-their biological investigation as potent antimicrobial agents” (Eur J Med Chem, 2018)
Converted amounts (≈) assume the structure as drawn.

Each compound was assayed on Staphylococcus aureus (assay: Antibacterial activity against methicillin-resistant Staphylococcus aureus N315 after 24 hrs by NCCLS micro broth dilution method). Details: N315, 24 h.
Type: functional

SMILES	MIC
CCCCCn1cc(COCc2c(-c3ccccc3)nc3sc4ccccc4n23)nn1	8 µg/mL (≈ 18.5 µM)
Fc1cccc(Cn2cc(COCc3c(-c4ccccc4)nc4sc5ccccc5n34)nn2)c1	16 µg/mL (≈ 34.1 µM)
CCCCCCn1cc(COCc2c(-c3ccccc3)nc3sc4cc(OCC)ccc4n23)nn1	64 µg/mL (≈ 131 µM)
CCOc1ccc2c(c1)sc1nc(-c3ccccc3)c(COCc3cn(Cc4ccc(Cl)cc4Cl)nn3)n12	64 µg/mL (≈ 113 µM)
Clc1ccc(Cn2cc(COCc3c(-c4ccccc4)nc4sc5ccccc5n34)nn2)cc1	64 µg/mL (≈ 132 µM)

What follows are compounds tested on Staphylococcus aureus (assay: Antibacterial activity against Staphylococcus aureus ATCC 25923 after 24 hrs by NCCLS micro broth dilution method). Details: ATCC 25923, 24 h.
Type: functional

SMILES	MIC
CCCCCn1cc(COCc2c(-c3ccccc3)nc3sc4ccccc4n23)nn1	64 µg/mL (≈ 148 µM)
Fc1cccc(Cn2cc(COCc3c(-c4ccccc4)nc4sc5ccccc5n34)nn2)c1	128 µg/mL (≈ 273 µM)
CCCCCCn1cc(COCc2c(-c3ccccc3)nc3sc4cc(OCC)ccc4n23)nn1	128 µg/mL (≈ 261 µM)
CCOc1ccc2c(c1)sc1nc(-c3ccccc3)c(COCc3cn(Cc4ccc(Cl)cc4Cl)nn3)n12	64 µg/mL (≈ 113 µM)
Clc1ccc(Cn2cc(COCc3c(-c4ccccc4)nc4sc5ccccc5n34)nn2)cc1	64 µg/mL (≈ 132 µM)

Each compound was assayed on Bacillus subtilis (assay: Antibacterial activity against Bacillus subtilis ATCC 21216 after 24 hrs by NCCLS micro broth dilution method). Details: ATCC 21216, 24 h.
Type: functional

SMILES	MIC
CCCCCn1cc(COCc2c(-c3ccccc3)nc3sc4ccccc4n23)nn1	64 µg/mL (≈ 148 µM)
Fc1cccc(Cn2cc(COCc3c(-c4ccccc4)nc4sc5ccccc5n34)nn2)c1	64 µg/mL (≈ 136 µM)
CCCCCCn1cc(COCc2c(-c3ccccc3)nc3sc4cc(OCC)ccc4n23)nn1	128 µg/mL (≈ 261 µM)
CCOc1ccc2c(c1)sc1nc(-c3ccccc3)c(COCc3cn(Cc4ccc(Cl)cc4Cl)nn3)n12	32 µg/mL (≈ 56.7 µM)
Clc1ccc(Cn2cc(COCc3c(-c4ccccc4)nc4sc5ccccc5n34)nn2)cc1	128 µg/mL (≈ 263 µM)

The compounds below were run on Micrococcus luteus (assay: Antibacterial activity against Micrococcus luteus ATCC 4698 after 24 hrs by micro broth dilution method). Details: ATCC 4698, 24 h.
Type: functional

SMILES	MIC
CCCCCn1cc(COCc2c(-c3ccccc3)nc3sc4ccccc4n23)nn1	128 µg/mL (≈ 297 µM)
Fc1cccc(Cn2cc(COCc3c(-c4ccccc4)nc4sc5ccccc5n34)nn2)c1	128 µg/mL (≈ 273 µM)
CCCCCCn1cc(COCc2c(-c3ccccc3)nc3sc4cc(OCC)ccc4n23)nn1	128 µg/mL (≈ 261 µM)
CCOc1ccc2c(c1)sc1nc(-c3ccccc3)c(COCc3cn(Cc4ccc(Cl)cc4Cl)nn3)n12	64 µg/mL (≈ 113 µM)
Clc1ccc(Cn2cc(COCc3c(-c4ccccc4)nc4sc5ccccc5n34)nn2)cc1	64 µg/mL (≈ 132 µM)

These compounds were tested on Escherichia coli (assay: Antibacterial activity against Escherichia coli DH52 after 24 hrs by NCCLS micro broth dilution method). Details: DH52, 24 h.
Type: functional

SMILES	MIC
CCCCCn1cc(COCc2c(-c3ccccc3)nc3sc4ccccc4n23)nn1	32 µg/mL (≈ 74.1 µM)
Fc1cccc(Cn2cc(COCc3c(-c4ccccc4)nc4sc5ccccc5n34)nn2)c1	32 µg/mL (≈ 68.2 µM)
CCCCCCn1cc(COCc2c(-c3ccccc3)nc3sc4cc(OCC)ccc4n23)nn1	128 µg/mL (≈ 261 µM)
CCOc1ccc2c(c1)sc1nc(-c3ccccc3)c(COCc3cn(Cc4ccc(Cl)cc4Cl)nn3)n12	64 µg/mL (≈ 113 µM)
Clc1ccc(Cn2cc(COCc3c(-c4ccccc4)nc4sc5ccccc5n34)nn2)cc1	64 µg/mL (≈ 132 µM)

The compounds below were run on Escherichia coli (assay: Antibacterial activity against Escherichia coli JM109 after 24 hrs by NCCLS micro broth dilution method). Details: JM109, 24 h.
Type: functional

SMILES	MIC
CCCCCn1cc(COCc2c(-c3ccccc3)nc3sc4ccccc4n23)nn1	64 µg/mL (≈ 148 µM)
Fc1cccc(Cn2cc(COCc3c(-c4ccccc4)nc4sc5ccccc5n34)nn2)c1	16 µg/mL (≈ 34.1 µM)
CCCCCCn1cc(COCc2c(-c3ccccc3)nc3sc4cc(OCC)ccc4n23)nn1	64 µg/mL (≈ 131 µM)
CCOc1ccc2c(c1)sc1nc(-c3ccccc3)c(COCc3cn(Cc4ccc(Cl)cc4Cl)nn3)n12	64 µg/mL (≈ 113 µM)
Clc1ccc(Cn2cc(COCc3c(-c4ccccc4)nc4sc5ccccc5n34)nn2)cc1	128 µg/mL (≈ 263 µM)

The compounds below were run on Shigella dysenteriae (assay: Antibacterial activity against Shigella dysenteriae after 24 hrs by NCCLS micro broth dilution method). Details: not given.
Type: functional

SMILES	MIC
CCCCCn1cc(COCc2c(-c3ccccc3)nc3sc4ccccc4n23)nn1	4 µg/mL (≈ 9.27 µM)
Fc1cccc(Cn2cc(COCc3c(-c4ccccc4)nc4sc5ccccc5n34)nn2)c1	128 µg/mL (≈ 273 µM)
CCCCCCn1cc(COCc2c(-c3ccccc3)nc3sc4cc(OCC)ccc4n23)nn1	128 µg/mL (≈ 261 µM)
CCOc1ccc2c(c1)sc1nc(-c3ccccc3)c(COCc3cn(Cc4ccc(Cl)cc4Cl)nn3)n12	32 µg/mL (≈ 56.7 µM)
Clc1ccc(Cn2cc(COCc3c(-c4ccccc4)nc4sc5ccccc5n34)nn2)cc1	128 µg/mL (≈ 263 µM)

The compounds below were run on Pseudomonas aeruginosa (assay: Antibacterial activity against Pseudomonas aeruginosa ATCC 27853 after 24 hrs by NCCLS micro broth dilution method). Details: ATCC 27853, 24 h.
Type: functional

SMILES	MIC
CCCCCn1cc(COCc2c(-c3ccccc3)nc3sc4ccccc4n23)nn1	128 µg/mL (≈ 297 µM)
Fc1cccc(Cn2cc(COCc3c(-c4ccccc4)nc4sc5ccccc5n34)nn2)c1	128 µg/mL (≈ 273 µM)
CCCCCCn1cc(COCc2c(-c3ccccc3)nc3sc4cc(OCC)ccc4n23)nn1	128 µg/mL (≈ 261 µM)
CCOc1ccc2c(c1)sc1nc(-c3ccccc3)c(COCc3cn(Cc4ccc(Cl)cc4Cl)nn3)n12	32 µg/mL (≈ 56.7 µM)
Clc1ccc(Cn2cc(COCc3c(-c4ccccc4)nc4sc5ccccc5n34)nn2)cc1	128 µg/mL (≈ 263 µM)

Each compound was assayed on Salmonella typhi (assay: Antibacterial activity against Salmonella typhi after 24 hrs by NCCLS micro broth dilution method). Details: Salmonella enterica.
Type: functional, Salmonella enterica subsp. enterica serovar Typhi

SMILES	MIC
CCCCCn1cc(COCc2c(-c3ccccc3)nc3sc4ccccc4n23)nn1	4 µg/mL (≈ 9.27 µM)
Fc1cccc(Cn2cc(COCc3c(-c4ccccc4)nc4sc5ccccc5n34)nn2)c1	128 µg/mL (≈ 273 µM)
CCCCCCn1cc(COCc2c(-c3ccccc3)nc3sc4cc(OCC)ccc4n23)nn1	128 µg/mL (≈ 261 µM)
CCOc1ccc2c(c1)sc1nc(-c3ccccc3)c(COCc3cn(Cc4ccc(Cl)cc4Cl)nn3)n12	64 µg/mL (≈ 113 µM)
Clc1ccc(Cn2cc(COCc3c(-c4ccccc4)nc4sc5ccccc5n34)nn2)cc1	64 µg/mL (≈ 132 µM)

The compounds below were run on Bacillus (assay: Antibacterial activity against Bacillus proteus ATCC 13315 after 24 hrs by NCCLS micro broth dilution method). Details: ATCC 13315, 24 h.
Type: functional

SMILES	MIC
CCCCCn1cc(COCc2c(-c3ccccc3)nc3sc4ccccc4n23)nn1	64 µg/mL (≈ 148 µM)
Fc1cccc(Cn2cc(COCc3c(-c4ccccc4)nc4sc5ccccc5n34)nn2)c1	64 µg/mL (≈ 136 µM)
CCCCCCn1cc(COCc2c(-c3ccccc3)nc3sc4cc(OCC)ccc4n23)nn1	128 µg/mL (≈ 261 µM)
CCOc1ccc2c(c1)sc1nc(-c3ccccc3)c(COCc3cn(Cc4ccc(Cl)cc4Cl)nn3)n12	16 µg/mL (≈ 28.3 µM)
Clc1ccc(Cn2cc(COCc3c(-c4ccccc4)nc4sc5ccccc5n34)nn2)cc1	64 µg/mL (≈ 132 µM)

What follows are compounds tested on Candida albicans (assay: Antifungal activity against Candida albicans ATCC 76615 after 24 hrs by NCCLS micro broth dilution method). Details: ATCC 76615, 24 h.
Type: functional

SMILES	MIC
CCCCCn1cc(COCc2c(-c3ccccc3)nc3sc4ccccc4n23)nn1	32 µg/mL (≈ 74.1 µM)
Fc1cccc(Cn2cc(COCc3c(-c4ccccc4)nc4sc5ccccc5n34)nn2)c1	16 µg/mL (≈ 34.1 µM)
CCCCCCn1cc(COCc2c(-c3ccccc3)nc3sc4cc(OCC)ccc4n23)nn1	64 µg/mL (≈ 131 µM)
CCOc1ccc2c(c1)sc1nc(-c3ccccc3)c(COCc3cn(Cc4ccc(Cl)cc4Cl)nn3)n12	1 µg/mL (≈ 1.77 µM)
Clc1ccc(Cn2cc(COCc3c(-c4ccccc4)nc4sc5ccccc5n34)nn2)cc1	32 µg/mL (≈ 65.8 µM)

These compounds were tested on Pichia norvegensis (assay: Antifungal activity against Candida mycoderma after 24 hrs by NCCLS micro broth dilution method). Details: not given.
Type: functional

SMILES	MIC
CCCCCn1cc(COCc2c(-c3ccccc3)nc3sc4ccccc4n23)nn1	16 µg/mL (≈ 37.1 µM)
Fc1cccc(Cn2cc(COCc3c(-c4ccccc4)nc4sc5ccccc5n34)nn2)c1	8 µg/mL (≈ 17 µM)
CCCCCCn1cc(COCc2c(-c3ccccc3)nc3sc4cc(OCC)ccc4n23)nn1	16 µg/mL (≈ 32.7 µM)
CCOc1ccc2c(c1)sc1nc(-c3ccccc3)c(COCc3cn(Cc4ccc(Cl)cc4Cl)nn3)n12	4 µg/mL (≈ 7.09 µM)
Clc1ccc(Cn2cc(COCc3c(-c4ccccc4)nc4sc5ccccc5n34)nn2)cc1	32 µg/mL (≈ 65.8 µM)

The compounds below were run on Cyberlindnera jadinii (assay: Antifungal activity against Candida utilis after 24 hrs by NCCLS micro broth dilution method). Details: Williopsis jadinii.
Type: functional

SMILES	MIC
CCCCCn1cc(COCc2c(-c3ccccc3)nc3sc4ccccc4n23)nn1	8 µg/mL (≈ 18.5 µM)
Fc1cccc(Cn2cc(COCc3c(-c4ccccc4)nc4sc5ccccc5n34)nn2)c1	8 µg/mL (≈ 17 µM)
CCCCCCn1cc(COCc2c(-c3ccccc3)nc3sc4cc(OCC)ccc4n23)nn1	16 µg/mL (≈ 32.7 µM)
CCOc1ccc2c(c1)sc1nc(-c3ccccc3)c(COCc3cn(Cc4ccc(Cl)cc4Cl)nn3)n12	8 µg/mL (≈ 14.2 µM)
Clc1ccc(Cn2cc(COCc3c(-c4ccccc4)nc4sc5ccccc5n34)nn2)cc1	64 µg/mL (≈ 132 µM)

These compounds were tested on Aspergillus flavus (assay: Antifungal activity against Aspergillus flavus after 24 hrs by NCCLS micro broth dilution method). Details: not given.
Type: functional

SMILES	MIC
CCCCCn1cc(COCc2c(-c3ccccc3)nc3sc4ccccc4n23)nn1	256 µg/mL (≈ 593 µM)
Fc1cccc(Cn2cc(COCc3c(-c4ccccc4)nc4sc5ccccc5n34)nn2)c1	128 µg/mL (≈ 273 µM)
CCCCCCn1cc(COCc2c(-c3ccccc3)nc3sc4cc(OCC)ccc4n23)nn1	128 µg/mL (≈ 261 µM)
CCOc1ccc2c(c1)sc1nc(-c3ccccc3)c(COCc3cn(Cc4ccc(Cl)cc4Cl)nn3)n12	64 µg/mL (≈ 113 µM)
Clc1ccc(Cn2cc(COCc3c(-c4ccccc4)nc4sc5ccccc5n34)nn2)cc1	256 µg/mL (≈ 527 µM)

The compounds below were run on Saccharomyces cerevisiae (assay: Antifungal activity against Saccharomyces cerevisiae after 24 hrs by NCCLS micro broth dilution method). Details: not given.
Type: functional

SMILES	MIC
CCCCCn1cc(COCc2c(-c3ccccc3)nc3sc4ccccc4n23)nn1	32 µg/mL (≈ 74.1 µM)
Fc1cccc(Cn2cc(COCc3c(-c4ccccc4)nc4sc5ccccc5n34)nn2)c1	32 µg/mL (≈ 68.2 µM)
CCCCCCn1cc(COCc2c(-c3ccccc3)nc3sc4cc(OCC)ccc4n23)nn1	32 µg/mL (≈ 65.4 µM)
CCOc1ccc2c(c1)sc1nc(-c3ccccc3)c(COCc3cn(Cc4ccc(Cl)cc4Cl)nn3)n12	32 µg/mL (≈ 56.7 µM)
Clc1ccc(Cn2cc(COCc3c(-c4ccccc4)nc4sc5ccccc5n34)nn2)cc1	16 µg/mL (≈ 32.9 µM)
